Several values for one entry are separate records, joined by “and”; a condition that tells them apart may be missing. Equal values may be shown once. Where a SMILES comes first, the peptide text is derived from it. [ ]: non-standard residue; d: D form. Gly(Dodecyl) = CCCCCCCCCCCC[C@H](N)C(=O)O
Experiments:
L5 DRGs = assay: qRT-PCR mRNA expression in ex vivo cultured L5 DRGs; assay type: cell-based, Sprague Dawley rat; settings: for Increase, BDNF mRNA / Increase, KV4.3 mRNA / Increase, KV7.2 mRNA / Increase, NGF mRNA / Increase, Nav1.8 mRNA / Increase, OPRM1 mRNA: DRG
Experimental: FIG. 15. […] Error bars =standard error of the mean.
L5 DRGs were dissected from adult male rats and plated in 12-well plates pre-coated with poly-D-Lysine (PDL) and laminin in a minimal volume of medium (250 ul Neurobasal™-A medium (GIBCO) supplemented with B27 (GIBCO), 50 ng/ml NGF (Sigma-Aldrich) and penicillin streptomycin) to allow attachment to the culture plate. One day after plating, DRGs were incubated with RPP (SEQ. ID NO: 12: 1 μM, 3 μM or 10 μM in culture medium, FIGS. 14 and 16; SEQ ID NOS: 13 and 14: 3 μM, FIG. 15) for 48 h. For RNA expression analysis, DRGs were lysed in 300 μl of Qiazol in a 1.5 ml tube containing Bullet Blender Pink Beads using a Bullet Blender Tissue Homogenizer (NextAdvance). Total RNA was extracted using RNeasy Midi Kit (Qiagen) according to manufacturer's instructions. Purified RNA was quantified with NanoDrop 2000 (ThermoFIsher), and reverse transcription was run using High Capacity cDNA Reverse Transcription Kit (Applied Biosystems) and 2 ng/ul RNA per reaction. For qRT-PCR, 5 ul of cDNA (corresponding to 10 ng of RNA) were mixed with to 10 ul SsoAdvanced™ Universal SYBR® Green Supermix (BioRad) and 1 ul of each primer (final primer concentration 500 nM each). Reactions were run in triplicates in a QuantStudio™ 7 Flex Real-Time PCR system (Applied Biosystems). Amplification data were analyzed using the comparative cycle threshold (ΔΔCt) method and β-actin as calibrator. Primers were as follows: β-actin: F-[…] (SEQ ID NO: 340), R-[…] (SEQ ID NO: 333); KV4.3: F-[…] (SEQ ID NO: 341), R-[…] (SEQ ID NO: 342); KV7.2 F-[…] AG (SEQ ID NO: 343), R-[…] (SEQ ID NO: 344); OPRM1: F-[…] (SEQ ID NO: 345), R-[…] (SEQ ID NO: 346).

CTDSP1 = molecular target: T1, CTDSP1 (Homo sapiens, UniProt Q9GZU7); assay: In vitro CTDSP1 phosphatase activity on phosphorylated REST peptide; assay type: biochemical; settings: phosphorylated REST peptide substrate; read-out: EC50, inhibition of CTDSP1 activity
T1 construct: GSGS linker + His6 (C)
T1 sequence (Q9GZU7 with tags, fused parts or gaps): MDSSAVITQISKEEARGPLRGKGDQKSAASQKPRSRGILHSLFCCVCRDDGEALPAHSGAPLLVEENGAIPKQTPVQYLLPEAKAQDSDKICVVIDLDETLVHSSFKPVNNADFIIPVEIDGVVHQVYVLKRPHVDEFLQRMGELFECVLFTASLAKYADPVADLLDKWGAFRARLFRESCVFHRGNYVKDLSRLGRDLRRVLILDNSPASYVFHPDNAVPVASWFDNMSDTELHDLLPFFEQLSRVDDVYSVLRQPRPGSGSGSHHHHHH
Experimental: FIG. 25. In vitro CTDSP1 phosphatase activity (relative to GST control) on the REST peptide (TEDpSPPp[…] (SEQ ID NO: 329)) as a substrate after exposure to 1 μM of RPP (SEQ ID NO: 1) or one of its variants (Table 3).
FIG. 26. […] N=5, error bars are standard deviation.
Results: FIG. 25—The top 51 most abundant RPP variants identified in the RNA display/protein evolution screen are listed in-Table 3 in the order of most (V1) to least (V51) abundant peptides. The primers used to make these peptides are listed in-Table 5. A phosphatase activity screen (Table 6, FIG. 25) was used to assess the ability of the top 51 RPPV to inhibit CTDSP1 phosphatase activity at amino acids 861 and 864 on the endogenous phosphorylated REST peptide (TEDpSPPp[…] (SEQ ID NO: 329)).
The phosphorylated REST peptide (TEDpSPPp[…] (SEQ ID NO: 329)) was synthesized by GeneScript. Phosphatase reactions were performed with 10 mM Tris pH 8, 10 mM MgCl2, 100 nM CTDSP1, 0.5 μM phosphate sensor (Thermo Fischer), 50 μM of REST peptide and various concentrations of peptide-GST fusions at room temperature for 10 min. All assays were performed in 96-well pates (Corning P/N 3686) rinsed with water 10 times. Fluorescence was measured by BioTek Synergy HTX using kinetic read with excitation at 420/27 nm and emission at 485/20 nm.

[1] = various concentrations, 48 h, relative to water control
[2] = whole DRG ex vivo, 3 μM, 48 hours
[3] = whole DRG ex vivo, 10 μM, 48 hours

SMILES: CCCCCCCCCCCC[C@@H]1NC(=O)[C@@H](CCCNC(=N)N)NC(=O)[C@@H](CCCNC(=N)N)NC(=O)[C@@H](Cc2c[nH]c3ccccc23)NC(=O)[C@@H](Cc2c[nH]c3ccccc23)NC(=O)[C@@H](CCCNC(=N)N)NC(=O)[C@@H](CCC(=O)O)NC(=O)[C@@H](CC(=O)O)NC(=O)[C@@H](CC(C)C)NC(=O)[C@@H](CCC(=O)O)NC(=O)[C@H]2CCCN2C(=O)[C@H]2CCCN2C(=O)[C@@H](CCC(=O)O)NC(=O)[C@H]2CCCN2C(=O)[C@H]2CCCN2C(=O)[C@@H](CC(C)C)NC(=O)[C@H]2CCCN2C(=O)[C@@H](CCCCN)NC(=O)[C@@H](CCCNC(=N)N)NC(=O)[C@@H](CCCNC(=N)N)NC(=O)[C@@H](CCCNC(=N)N)NC(=O)[C@@H](CCCNC(=N)N)NC(=O)[C@@H](CCCNC(=N)N)NC1=O [SEQ ID NO: 12] (cyclo([dR][dW][dW][dR][dR][Gly(Dodecyl)][dR][dR][dR][dR][dR][dK][dP][dL][dP][dP][dE][dP][dP][dE][dL][dD][dE]))
- Increase, BDNF mRNA (L5 DRGs; 0.3 μM, 48 h): 1.4x
- Increase, BDNF mRNA (L5 DRGs; 1 μM, 48 h): 1.3x
- Increase, KV4.3 mRNA (L5 DRGs; 1 μM, 48 h): 0x
- Increase, KV7.2 mRNA (L5 DRGs; 1 μM, 48 h): 0 x
- Increase, NGF mRNA (L5 DRGs; 1 μM, 48 h): No affect was observed
- Increase, Nav1.8 mRNA (L5 DRGs; 1 μM, 48 h): 0.8x
- Increase, OPRM1 mRNA (L5 DRGs; 1 μM, 48 h): 1.2x
- Increase, NGF mRNA (L5 DRGs; 1 μM, 48 h, listed as 12): 0.9x
- Increase, BDNF mRNA (L5 DRGs; 3 μM, 48 h): 1.3x
- Increase, KV4.3 mRNA (L5 DRGs; 3 μM, 48 h): 0x
- Increase, KV7.2 mRNA (L5 DRGs; 3 μM, 48 h): 6.7x
- Increase, NGF mRNA (L5 DRGs; 3 μM, 48 h): 1.25 x
- Increase, Nav1.8 mRNA (L5 DRGs; 3 μM, 48 h): 2.6x
- Increase, OPRM1 mRNA (L5 DRGs; 3 μM, 48 h): 3x
- Increase, BDNF mRNA (L5 DRGs; 10 μM, 48 h): 1.7 x
- Increase, KV4.3 mRNA (L5 DRGs; 10 μM, 48 h): 1.9x
- Increase, KV7.2 mRNA (L5 DRGs; 10 μM, 48 h): 7.5x
- Increase, NGF mRNA (L5 DRGs; 10 μM, 48 h): 1.9 x
- Increase, Nav1.8 mRNA (L5 DRGs; 10 μM, 48 h): 4x
- Increase, OPRM1 mRNA (L5 DRGs; 10 μM, 48 h): 3.9x
- mRNA expression of BDNF and NGF (in words) (L5 DRGs; [1]): increases expression of BDNF and NGF
- mRNA expression of KV4.3, KV7.2, Nav1.8 and OPRM1 (in words) (L5 DRGs; [1]): increases expression of KV4.3, KV7.2, Nav1.8 and OPRM1
- increase of NGF (L5 DRGs; whole DRG ex vivo, 3 μM): approximately 50%
- induction of KV4.3 compared to control (L5 DRGs; [2]): approximately 0 times
- induction of Nav1.8 compared to control (L5 DRGs; [2]): 2.9 times and ~3 times
- increase of BDNF expression (L5 DRGs; whole DRG ex vivo, 10 μM): ~75%
- increase of NGF (L5 DRGs; whole DRG ex vivo, 10 μM): ~2 times
- induction of KV7.2 compared to control (L5 DRGs; [3]): 9 times and ~7 times
- induction of Nav1.8 compared to control (L5 DRGs; [3]): 4.8 times and ~5 times
- increase of BDNF expression (L5 DRGs; whole DRG ex vivo, 0.3, 1, and 3 μM): approximately 25%
- EC50 (CTDSP1): ~0.02 µM
